Literature values as cited in article PMC7770979 (Molecular Metabolism, 2020).

Tested on: IR

SerA12 substitution by alanine: insulin with SerA12 substitution by alanine (ref 34)
Affinity to IR, % of insulin: 36%
